Literature values as cited in patent publication US8501405B2, “Real-time sequencing methods and systems” (Pacific Biosciences of California, Inc., priority 2009, dated 2013).
Like-named read-outs stand apart in the source and are kept apart here.

How the values were obtained:
[1] = DNA polymerases with reverse transcriptase activity; available values for DNA-dependent DNA polymerization
[2] = not given; remark: listed apart in the source
[3] = not given; remark: listed apart in the source
[4] = DNA polymerases with reverse transcriptase activity, available values for DNA-dependent DNA polymerization
[5] = reverse transcriptases and RNA-dependent RNA polymerases, * wild-type or published mutants

## phi29: DNA polymerase with reverse transcriptase activity
[1]
  Activity with phospholinked nucleotides: yes
[4]
  Maximum speed (bases/s): 100 bases/s
[2]; [4]
  Strand-displacement DNA synthesis: yes
[3]; [4]
  Processivity (bases): >70,000 bases

## E. coli pol I: DNA polymerase with reverse transcriptase activity
[4]
  Maximum speed (bases/s): 17 bases/s
[2]; [4]
  Strand-displacement DNA synthesis: yes (degrades
[3]; [4]
  Processivity (bases): ~50 bases

B1: Thermus thermophilus: DNA polymerase with reverse transcriptase activity (protein, UniProt P52028 1-834, looked up)
DNA polymerase I, thermostable: MEAMLPLFEPKGRVLLVDGHHLAYRTFFALKGLTTSRGEPVQAVYGFAKSLLKALKEDGYKAVFVVFDAKAPSFRHEAYEAYKAGRAPTPEDFPRQLALIKELVDLLGFTRLEVPGYEADDVLATLAKKAEKEGYEVRILTADRDLYQLVSDRVAVLHPEGHLITPEWLWEKYGLRPEQWVDFRALVGDPSDNLPGVKGIGEKTALKLLKEWGSLENLLKNLDRVKPENVREKIKAHLEDLRLSLELSRVRTDLPLEVDLAQGREPDREGLRAFLERLEFGSLLHEFGLLEAPAPLEEAPWPPPEGAFVGFVLSRPEPMWAELKALAACRDGRVHRAADPLAGLKDLKEVRGLLAKDLAVLASREGLDLVPGDDPMLLAYLLDPSNTTPEGVARRYGGEWTEDAAHRALLSERLHRNLLKRLEGEEKLLWLYHEVEKPLSRVLAHMEATGVRLDVAYLQALSLELAEEIRRLEEEVFRLAGHPFNLNSRDQLERVLFDELRLPALGKTQKTGKRSTSAAVLEALREAHPIVEKILQHRELTKLKNTYVDPLPSLVHPRTGRLHTRFNQTATATGRLSSSDPNLQNIPVRTPLGQRIRRAFVAEAGWALVALDYSQIELRVLAHLSGDENLIRVFQEGKDIHTQTASWMFGVPPEAVDPLMRRAAKTVNFGVLYGMSAHRLSQELAIPYEEAVAFIERYFQSFPKVRAWIEKTLEEGRKRGYVETLFGRRRYVPDLNARVKSVREAAERMAFNMPVQGTAADLMKLAMVKLFPRLREMGARMLLQVHDELLLEAPQARAEEVAALAKEAMEKAYPLAVPLEVEVGMGEDWLSAKG
[4]
  Maximum speed (bases/s): 120 bases/s
[3]; [4]
  Processivity (bases): 300 bases

B2: phi6: RNA-dependent RNA polymerase (protein, UniProt P11124 2-665, looked up)
RNA-directed RNA polymerase: PRRAPAFPLSDIKAQMLFANNIKAQQASKRSFKEGAIETYEGLLSVDPRFLSFKNELSRYLTDHFPANVDEYGRVYGNGVRTNFFGMRHMNGFPMIPATWPLASNLKKRADADLADGPVSERDNLLFRAAVRLMFSDLEPVPLKIRKGSSTCIPYFSNDMGTKIEIAERALEKAEEAGNLMLQGKFDDAYQLHQMGGAYYVVYRAQSTDAITLDPKTGKFVSKDRMVADFEYAVTGGEQGSLFAASKDASRLKEQYGIDVPDGFFCERRRTAMGGPFALNAPIMAVAQPVRNKIYSKYAYTFHHTTRLNKEEKVKEWSLCVATDVSDHDTFWPGWLRDLICDELLNMGYAPWWVKLFETSLKLPVYVGAPAPEQGHTLLGDPSNPDLEVGLSSGQGATDLMGTLLMSITYLVMQLDHTAPHLNSRIKDMPSACRFLDSYWQGHEEIRQISKSDDAILGWTKGRALVGGHRLFEMLKEGKVNPSPYMKISYEHGGAFLGDILLYDSRREPGSAIFVGNINSMLNNQFSPEYGVQSGVRDRSKRKRPFPGLAWASMKDTYGACPIYSDVLEAIERCWWNAFGESYRAYREDMLKRDTLELSRYVASMARQAGLAELTPIDLEVLADPNKLQYKWTEADVSANIHEVLMHGVSVEKTERFLRSVMPR
[5]
  Maximum speed (bases/s): 120 bases/s
[2]; reverse transcriptases and RNA-dependent RNA polymerases
  Strand-displacement DNA synthesis: yes
[3]; [5]
  Processivity (bases): 13,500 bases
